{"source": "patent US20170135339A1", "about": "“COATING FORMULATION FOR SEED AND SURFACE STERILIZATION” (priority 2015, published 2017)", "key": {"[1]": {"test_system": "Human adenovirus type 5 Adenoid 75 strain"}, "[2]": {"test_system": "Poliovirus type 1 Chat strain"}, "[3]": {"test_system": "HEp-2 cells"}}}
{"substance": "zinc pyrithione", "values": [{"measurement": "Activity against the virus", "setting": "[1]", "result": 99.9, "unit": "%"}, {"measurement": "Reduction in virus titration", "setting": "[1]", "result": "at least 4 log"}, {"measurement": "Reduction ratio in virus titration", "setting": "[1]", "result": 4.0, "unit": "Logarithmic TCID50"}, {"measurement": "Virus titration with disinfectant", "setting": "[1]", "result": 1.0, "unit": "Logarithmic TCID50"}, {"measurement": "Reduction in virus titration", "setting": "[2]", "result": "at least 4 log"}, {"measurement": "Reduction ratio in virus titration", "setting": "[2]", "result": 4.5, "unit": "Logarithmic TCID50"}, {"measurement": "Virus titration with disinfectant", "setting": "[2]", "result": 1.5, "unit": "Logarithmic TCID50"}, {"measurement": "Cytopathic effect on the cells in the cell culture", "setting": "[3]", "result": "showed cytopathic effect"}, {"measurement": "Lowest ratio of zinc pyrithione solution which does not show cytopathic effect", "setting": "[3]", "result": 0.01, "unit": "%"}]}
